Source: US7381521B2, “Anti-pathogenic composition useful in blood preservation” (Altachem Pharma Ltd., priority 2001, dated 2008)

Columns and labels:
S. aureus ATCC 6538 = assay: Test 2 (DGHM), growth inhibition by dilutions, 72 hours at 37° C.; format: cell-based, Staphylococcus aureus
Procedure: (§1) Another test was carried out a basis of the following solutions • 100 ml of a 0.1% solution of chlorohexidine digluconate (pH 6); and • 100 ml of a 0.1% solution of Bardac22®.
(§2) The activity of these solutions, alone or in combination, was more particularly tested in respect of Staphylococcus aureus ATCC 6538, Escherichia coli ATCC 11229 and Candida albicans ATCC 10231.
(§3) The tests were conducted in accordance with the procedure described in Chapter I/2.1 and 2.2 of Tichtlinien für die Prüfung und Bewertung chemischer Desinfektionsverfahren der DGHM/Guidelines for Testing and Evaluating Chemical Disinfection Processes of DGHM as at 1.1, 1981.
(§4) Tables IX, X and XI respectively illustrate the bactericidal and fungicidal activity of a 0.1% aqueous solution of chlorohexidine digluconate, a 0.1% aqueous solution of Bardac22® and a mixture of equal parts of both compounds. The procedures of which these Tables illustrate the results comprise incubation of 72 hours at 37° C. and the use of the following inactivating substances as controls: • A: 3% Tween®80+0.3% lecithin+0.1% cysteine • B: 3% Tween®80+3% saponin+0.1% cysteine+0.1% histidine; • C: 3% Tween®80+0.3% lecithin+0.1% histidine+0.5% sodium thiosulphate.
(§5) In these Tables, the sign “+” indicates an increase and the sign “−” denotes the absence of growth.

E. coli ATCC 11229 = assay: as above; format: cell-based, Escherichia coli
Procedure: as §1, §2, §3, §4, §5

[1] = test system: Candida albicans ATCC 1031; assay: as above; format: cell-based
Procedure: as §1, §2, §3, §4, §5

C. albicans ATCC 1031 = assay: Test 2 (DGHM), action as a function of disinfection time at 22° C., 8 × 10^7 organisms/ml; format: cell-based, Candida albicans
Procedure: as §1, §2, §3

[2] = 0.00625% vol/vol, inactivator A
[3] = 0.00625% vol/vol, inactivator B
[4] = 0.00625% vol/vol, inactivator C
[5] = 0.00625% vol/vol, no inactivator
[6] = 0.0125% vol/vol, no inactivator

## CCCCCCCCCC[N+](C)(C)CCCCCCCCCC.[Cl-] [Bardac ®, didecyl dimethyl ammonium chloride]
S. aureus ATCC 6538
  concentration of active substance inhibiting growth: 0.0001%
  dilution of the 0.1% solution inhibiting growth: 0.1%
S. aureus ATCC 6538; [2]
  growth: +
S. aureus ATCC 6538; [3]
  growth: +
S. aureus ATCC 6538; [4]
  growth: +
S. aureus ATCC 6538; [5]
  growth: +
S. aureus ATCC 6538; 0.0125% vol/vol, inactivator A
  growth: +
S. aureus ATCC 6538; 0.0125% vol/vol, inactivator B
  growth: +
S. aureus ATCC 6538; 0.0125% vol/vol, inactivator C
  growth: +
S. aureus ATCC 6538; [6]
  growth: +
S. aureus ATCC 6538; 0.025% vol/vol, inactivator A
  growth: +
S. aureus ATCC 6538; 0.025% vol/vol, inactivator B
  growth: +
S. aureus ATCC 6538; 0.025% vol/vol, inactivator C
  growth: +
S. aureus ATCC 6538; 0.025% vol/vol, no inactivator
  growth: +
S. aureus ATCC 6538; 0.05% vol/vol, inactivator A
  growth: +
S. aureus ATCC 6538; 0.05% vol/vol, inactivator B
  growth: +
S. aureus ATCC 6538; 0.05% vol/vol, inactivator C
  growth: +
S. aureus ATCC 6538; 0.05% vol/vol, no inactivator
  growth: +
S. aureus ATCC 6538; 0.1% vol/vol, inactivator A
  growth: +
S. aureus ATCC 6538; 0.1% vol/vol, inactivator B
  growth: +
S. aureus ATCC 6538; 0.1% vol/vol, inactivator C
  growth: +
S. aureus ATCC 6538; 0.1% vol/vol, no inactivator
  growth: −
S. aureus ATCC 6538; 0.5% vol/vol, inactivator A
  growth: +
S. aureus ATCC 6538; 0.5% vol/vol, inactivator B
  growth: +
S. aureus ATCC 6538; 0.5% vol/vol, inactivator C
  growth: +
S. aureus ATCC 6538; 0.5% vol/vol, no inactivator
  growth: −
S. aureus ATCC 6538; 1.0% vol/vol, inactivator A
  growth: +
S. aureus ATCC 6538; 1.0% vol/vol, inactivator B
  growth: +
S. aureus ATCC 6538; 1.0% vol/vol, inactivator C
  growth: +
S. aureus ATCC 6538; 1.0% vol/vol, no inactivator
  growth: −
E. coli ATCC 11229
  concentration of active substance inhibiting growth: 0.0005%
  dilution of the 0.1% solution inhibiting growth: 0.5%
E. coli ATCC 11229; [2]
  growth: +
E. coli ATCC 11229; [3]
  growth: +
E. coli ATCC 11229; [4]
  growth: +
E. coli ATCC 11229; [5]
  growth: +
E. coli ATCC 11229; 0.0125% vol/vol, inactivator A
  growth: +
E. coli ATCC 11229; 0.0125% vol/vol, inactivator B
  growth: +
E. coli ATCC 11229; 0.0125% vol/vol, inactivator C
  growth: +
E. coli ATCC 11229; [6]
  growth: +
E. coli ATCC 11229; 0.025% vol/vol, inactivator A
  growth: +
E. coli ATCC 11229; 0.025% vol/vol, inactivator B
  growth: +
E. coli ATCC 11229; 0.025% vol/vol, inactivator C
  growth: +
E. coli ATCC 11229; 0.025% vol/vol, no inactivator
  growth: +
E. coli ATCC 11229; 0.05% vol/vol, inactivator A
  growth: +
E. coli ATCC 11229; 0.05% vol/vol, inactivator B
  growth: +
E. coli ATCC 11229; 0.05% vol/vol, inactivator C
  growth: +
E. coli ATCC 11229; 0.05% vol/vol, no inactivator
  growth: +
E. coli ATCC 11229; 0.1% vol/vol, inactivator A
  growth: +
E. coli ATCC 11229; 0.1% vol/vol, inactivator B
  growth: +
E. coli ATCC 11229; 0.1% vol/vol, inactivator C
  growth: +
E. coli ATCC 11229; 0.1% vol/vol, no inactivator
  growth: +
E. coli ATCC 11229; 0.5% vol/vol, inactivator A
  growth: +
E. coli ATCC 11229; 0.5% vol/vol, inactivator B
  growth: +
E. coli ATCC 11229; 0.5% vol/vol, inactivator C
  growth: +
E. coli ATCC 11229; 0.5% vol/vol, no inactivator
  growth: −
E. coli ATCC 11229; 1.0% vol/vol, inactivator A
  growth: +
E. coli ATCC 11229; 1.0% vol/vol, inactivator B
  growth: +
E. coli ATCC 11229; 1.0% vol/vol, inactivator C
  growth: +
E. coli ATCC 11229; 1.0% vol/vol, no inactivator
  growth: −
[1]
  concentration of active substance inhibiting growth: 0.0001%
  dilution of the 0.1% solution inhibiting growth: 0.1%
[1]; [2]
  growth: +
[1]; [3]
  growth: +
[1]; [4]
  growth: +
[1]; [5]
  growth: +
[1]; 0.0125% vol/vol, inactivator A
  growth: +
[1]; 0.0125% vol/vol, inactivator B
  growth: +
[1]; 0.0125% vol/vol, inactivator C
  growth: +
[1]; [6]
  growth: +
[1]; 0.025% vol/vol, inactivator A
  growth: +
[1]; 0.025% vol/vol, inactivator B
  growth: +
[1]; 0.025% vol/vol, inactivator C
  growth: +
[1]; 0.025% vol/vol, no inactivator
  growth: +
[1]; 0.05% vol/vol, inactivator A
  growth: +
[1]; 0.05% vol/vol, inactivator B
  growth: +
[1]; 0.05% vol/vol, inactivator C
  growth: +
[1]; 0.05% vol/vol, no inactivator
  growth: +
[1]; 0.1% vol/vol, inactivator A
  growth: +
[1]; 0.1% vol/vol, inactivator B
  growth: +
[1]; 0.1% vol/vol, inactivator C
  growth: +
[1]; 0.1% vol/vol, no inactivator
  growth: −
[1]; 0.5% vol/vol, inactivator A
  growth: +
[1]; 0.5% vol/vol, inactivator B
  growth: +
[1]; 0.5% vol/vol, inactivator C
  growth: +
[1]; 0.5% vol/vol, no inactivator
  growth: −
[1]; 1.0% vol/vol, inactivator A
  growth: +
[1]; 1.0% vol/vol, inactivator B
  growth: +
[1]; 1.0% vol/vol, inactivator C
  growth: +
[1]; 1.0% vol/vol, no inactivator
  growth: −
C. albicans ATCC 1031; 0.05% vol/vol, 1 min
  growth: +
C. albicans ATCC 1031; 0.05% vol/vol, 3 min
  growth: +
C. albicans ATCC 1031; 0.05% vol/vol, 5 min
  growth: +
C. albicans ATCC 1031; 0.05% vol/vol, 15 min
  growth: +
C. albicans ATCC 1031; 0.05% vol/vol, 30 min
  growth: +
C. albicans ATCC 1031; 0.05% vol/vol, 60 min
  growth: +
C. albicans ATCC 1031; 0.1% vol/vol, 1 min
  growth: +
C. albicans ATCC 1031; 0.1% vol/vol, 3 min
  growth: +
C. albicans ATCC 1031; 0.1% vol/vol, 5 min
  growth: +
C. albicans ATCC 1031; 0.1% vol/vol, 15 min
  growth: +
C. albicans ATCC 1031; 0.1% vol/vol, 30 min
  growth: +
C. albicans ATCC 1031; 0.1% vol/vol, 60 min
  growth: +
C. albicans ATCC 1031; 0.5% vol/vol, 1 min
  growth: +
C. albicans ATCC 1031; 0.5% vol/vol, 3 min
  growth: +
C. albicans ATCC 1031; 0.5% vol/vol, 5 min
  growth: +
C. albicans ATCC 1031; 0.5% vol/vol, 15 min
  growth: +
C. albicans ATCC 1031; 0.5% vol/vol, 30 min
  growth: +
C. albicans ATCC 1031; 0.5% vol/vol, 60 min
  growth: +
C. albicans ATCC 1031; 1% vol/vol, 1 min
  growth: +
C. albicans ATCC 1031; 1% vol/vol, 3 min
  growth: +
C. albicans ATCC 1031; 1% vol/vol, 5 min
  growth: +
C. albicans ATCC 1031; 1% vol/vol, 15 min
  growth: +
C. albicans ATCC 1031; 1% vol/vol, 30 min
  growth: −
C. albicans ATCC 1031; 1% vol/vol, 60 min
  growth: −
C. albicans ATCC 1031; 5% vol/vol, 1 min
  growth: +
C. albicans ATCC 1031; 5% vol/vol, 3 min
  growth: +
C. albicans ATCC 1031; 5% vol/vol, 5 min
  growth: −
C. albicans ATCC 1031; 5% vol/vol, 15 min
  growth: −
C. albicans ATCC 1031; 5% vol/vol, 30 min
  growth: −
C. albicans ATCC 1031; 5% vol/vol, 60 min
  growth: −
C. albicans ATCC 1031; 10% vol/vol, 1 min
  growth: −
C. albicans ATCC 1031; 10% vol/vol, 3 min
  growth: −
C. albicans ATCC 1031; 10% vol/vol, 5 min
  growth: −
C. albicans ATCC 1031; 10% vol/vol, 15 min
  growth: −
C. albicans ATCC 1031; 10% vol/vol, 30 min
  growth: −
C. albicans ATCC 1031; 10% vol/vol, 60 min
  growth: −
C. albicans ATCC 1031; 25% vol/vol, 1 min
  growth: −
C. albicans ATCC 1031; 25% vol/vol, 3 min
  growth: −
C. albicans ATCC 1031; 25% vol/vol, 5 min
  growth: −
C. albicans ATCC 1031; 25% vol/vol, 15 min
  growth: −
C. albicans ATCC 1031; 25% vol/vol, 30 min
  growth: −
C. albicans ATCC 1031; 25% vol/vol, 60 min
  growth: −
